{"source": "paper PMC7044277", "about": "(Nature Communications, 2020)", "type_in_all_cases": "cell-based", "key": {"320 non-olfactory GPCRs [1]": {"target": "320 non-olfactory GPCRs (Homo sapiens, UniProt P41143)", "sequence (P41143 whole entry)": "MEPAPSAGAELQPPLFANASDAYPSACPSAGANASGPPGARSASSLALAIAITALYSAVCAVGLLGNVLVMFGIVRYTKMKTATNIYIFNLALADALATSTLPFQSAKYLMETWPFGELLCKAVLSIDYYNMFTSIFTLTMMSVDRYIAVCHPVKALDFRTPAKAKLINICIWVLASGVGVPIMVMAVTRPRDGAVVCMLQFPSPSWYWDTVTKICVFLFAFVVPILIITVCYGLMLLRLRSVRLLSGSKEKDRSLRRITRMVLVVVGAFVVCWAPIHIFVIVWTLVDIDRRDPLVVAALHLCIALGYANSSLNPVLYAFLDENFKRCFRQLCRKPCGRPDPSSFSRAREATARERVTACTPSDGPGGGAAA", "conditions": "receptor OPRD1; replicate values, Fig_4g"}, "320 non-olfactory GPCRs [2]": {"target": "T1, 320 non-olfactory GPCRs (Homo sapiens, UniProt Q99527)", "T1 construct": "expressed in transfected cells; host or cells: HTLA cells", "T1 sequence (Q99527 whole entry)": "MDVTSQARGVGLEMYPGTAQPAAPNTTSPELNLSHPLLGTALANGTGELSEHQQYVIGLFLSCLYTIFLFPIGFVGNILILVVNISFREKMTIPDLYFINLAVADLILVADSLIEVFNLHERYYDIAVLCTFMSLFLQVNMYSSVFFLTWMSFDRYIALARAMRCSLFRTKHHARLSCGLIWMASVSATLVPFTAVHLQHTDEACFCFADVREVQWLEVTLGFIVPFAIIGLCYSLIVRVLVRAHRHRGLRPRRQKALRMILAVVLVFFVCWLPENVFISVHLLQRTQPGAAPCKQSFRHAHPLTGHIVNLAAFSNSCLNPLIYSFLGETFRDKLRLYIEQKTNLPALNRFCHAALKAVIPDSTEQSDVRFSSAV"}, "320 non-olfactory GPCRs [3]": {"target": "T2, 320 non-olfactory GPCRs (Homo sapiens, UniProt Q86SM5)", "T2 construct": "expressed in transfected cells; host or cells: HTLA cells", "T2 sequence (Q86SM5 whole entry)": "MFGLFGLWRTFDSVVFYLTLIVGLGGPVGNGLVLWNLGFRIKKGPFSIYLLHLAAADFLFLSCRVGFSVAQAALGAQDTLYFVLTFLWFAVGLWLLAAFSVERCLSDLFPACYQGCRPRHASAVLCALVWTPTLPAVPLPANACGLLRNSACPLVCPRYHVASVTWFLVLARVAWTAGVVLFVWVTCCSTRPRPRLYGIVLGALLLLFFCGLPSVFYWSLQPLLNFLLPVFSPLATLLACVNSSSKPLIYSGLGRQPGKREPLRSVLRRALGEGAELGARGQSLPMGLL", "conditions": "receptor MRGPRG; replicate values, Fig_4g"}, "320 non-olfactory GPCRs [4]": {"target": "T3, 320 non-olfactory GPCRs (Homo sapiens, UniProt Q86SQ6)", "T3 construct": "expressed in transfected cells; host or cells: HTLA cells", "T3 sequence (Q86SQ6 whole entry)": "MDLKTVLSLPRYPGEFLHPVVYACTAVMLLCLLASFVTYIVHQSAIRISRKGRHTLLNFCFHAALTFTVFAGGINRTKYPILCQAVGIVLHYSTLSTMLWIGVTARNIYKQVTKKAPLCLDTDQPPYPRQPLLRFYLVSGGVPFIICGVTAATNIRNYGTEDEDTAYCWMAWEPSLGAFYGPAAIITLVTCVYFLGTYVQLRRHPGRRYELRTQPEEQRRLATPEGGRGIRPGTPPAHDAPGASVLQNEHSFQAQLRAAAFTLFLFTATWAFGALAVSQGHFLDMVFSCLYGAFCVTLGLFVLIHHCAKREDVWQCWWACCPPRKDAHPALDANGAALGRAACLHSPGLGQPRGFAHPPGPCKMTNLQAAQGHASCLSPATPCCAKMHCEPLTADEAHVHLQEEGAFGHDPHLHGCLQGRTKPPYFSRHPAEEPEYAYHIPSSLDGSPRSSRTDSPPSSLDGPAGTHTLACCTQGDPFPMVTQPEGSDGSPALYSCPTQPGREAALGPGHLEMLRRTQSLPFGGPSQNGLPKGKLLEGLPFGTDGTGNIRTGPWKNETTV"}}, "note": "Where “and” joins values, the source holds several entries; their conditions need not be identical. Identical values can stand only once.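 Wherever Fold of Basal is given: compound tested at 1 µM final concentration.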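 Wherever GPCRome agonism screen response is given: fold over basal response of each receptor without drug.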"}
{"smiles": "CCOc1cccc2cc(C(C)NCC3(O)CCCCC3)oc12", "note": "(stereo not shown) [O4LE6]", "values": [{"measurement": "GPCRome agonism screen response", "setting": "320 non-olfactory GPCRs [1]", "result": "1.015 and 0.7396 and 0.6746 and 0.921"}, {"measurement": "Fold of Basal", "setting": "320 non-olfactory GPCRs [2]", "result": "0.9251 and 0.8387 and 0.6915 and 0.7823"}, {"measurement": "GPCRome agonism screen response", "setting": "320 non-olfactory GPCRs [3]", "result": "0.767 and 0.7489 and 0.544 and 0.824"}, {"measurement": "Fold of Basal", "setting": "320 non-olfactory GPCRs [4]", "result": "0.9894 and 1.559 and 1.433 and 1.372"}]}
